Assay results taken from patent US4650801A, “Anti-cancer compositions for delivering 5-fluorouracil” (Taiho Pharmaceutical Company, Ltd., priority 1978, dated 1987).

Assays:
sarcoma 180 = experiment: Anti-cancer effect on subcutaneously transplanted sarcoma 180 in mice; assay type: in vivo, mouse
Protocol: (§1) The anti-cancer compositions of this invention are tested in mice by the following methods to determine acute toxicity, anti-cancer effect and therapeutic index
Tissues of sarcoma 180, 2×10^6, are subcutaneously transplanted in the back of male mice of ICR strain (6 mice in each group). A 5-fluorouracil (a) and uracil derivative (b) in the proportions listed in Tables 1-16 are suspended in a 5% solution of gum arabic to prepare a suspension. Twenty-four hours after the transplantation and during the following seven consecutive days the suspension is orally given to the animal once every day. On the 10th day after the transplantation, the tumor is removed from the body and weighed to calculate the average weight (T) of the tumors in the group to which the composition has been given and the corresponding weight (C) in the control group to determine the ratio T/C.

in vivo = conditions: mouse, in vivo, po
Protocol: as §1
(§2) Male mice of ICR strain weighing 22±1 g are used, 5 mice in each group. A 5-fluorouracil (a) and uracil derivative (b) in the proportions listed in Tables 1-16 are suspended in a 5% solution of gum arabic to prepare a suspension, which is forcibly orally administered to each mouse through a tube at a dose of 1 ml/100 g. Over the following period of three weeks the mice are checked every day for poisoning, body weight and mortality. The LD50 is determined according to the up-and-down method 3 weeks after the administration.

male mice of ICR strain = experiment: in vivo; conditions: 30240 min
Protocol: as §1, §2

[1] = (b) = 1(2-Tetrahydrofuryl)uracil, (b)/(a) mol ratio 1
[2] = (b) = 1(2-Tetrahydrofuryl)uracil, (b)/(a) mol ratio 2
[3] = (b) = 1(2-Tetrahydrofuryl)uracil, (b)/(a) mol ratio 5
[4] = (b) = 1Acetyluracil, (b)/(a) mol ratio 1
[5] = (b) = 1Acetyluracil, (b)/(a) mol ratio 2
[6] = (b) = 1Acetyluracil, (b)/(a) mol ratio 5
[7] = (b) = 1Cyclohexylcarbamoyluracil, (b)/(a) mol ratio 0.5
[8] = (b) = 1Cyclohexylcarbamoyluracil, (b)/(a) mol ratio 2
[9] = (b) = 1Cyclohexylcarbamoyluracil, (b)/(a) mol ratio 5
[10] = (b) = 1n-Hexylcarbamoyluracil, (b)/(a) mol ratio 1
[11] = (b) = 1n-Hexylcarbamoyluracil, (b)/(a) mol ratio 2
[12] = (b) = 1n-Hexylcarbamoyluracil, (b)/(a) mol ratio 10
[13] = (b) = 2'-Deoxycytidine, (b)/(a) mol ratio 1
[14] = (b) = 2'-Deoxycytidine, (b)/(a) mol ratio 2
[15] = (b) = 2'-Deoxycytidine, (b)/(a) mol ratio 10
[16] = (b) = 2'-Deoxyuridine, (b)/(a) mol ratio 1
[17] = (b) = 2'-Deoxyuridine, (b)/(a) mol ratio 2
[18] = (b) = 2'-Deoxyuridine, (b)/(a) mol ratio 20
[19] = (b) = 3Benzoyluracil, (b)/(a) mol ratio 1
[20] = (b) = 3Benzoyluracil, (b)/(a) mol ratio 2
[21] = (b) = 3Benzoyluracil, (b)/(a) mol ratio 10
[22] = (b) = 5Bromo-2'-deoxyuridine, (b)/(a) mol ratio 0.5
[23] = (b) = 5Bromo-2'-deoxyuridine, (b)/(a) mol ratio 2
[24] = (b) = 5Bromo-2'-deoxyuridine, (b)/(a) mol ratio 10
[25] = (b) = 5Bromouracil, (b)/(a) mol ratio 0.5
[26] = (b) = 5Bromouracil, (b)/(a) mol ratio 2
[27] = (b) = 5Bromouracil, (b)/(a) mol ratio 10
[28] = (b) = 5Iodouracil, (b)/(a) mol ratio 1
[29] = (b) = 5Iodouracil, (b)/(a) mol ratio 2
[30] = (b) = 5Iodouracil, (b)/(a) mol ratio 5
[31] = (b) = Cytidine, (b)/(a) mol ratio 2
[32] = (b) = Cytidine, (b)/(a) mol ratio 10
[33] = (b) = Cytosine, (b)/(a) mol ratio 10
[34] = (b) = Orotic acid, (b)/(a) mol ratio 1
[35] = (b) = Orotic acid, (b)/(a) mol ratio 2
[36] = (b) = Orotic acid, (b)/(a) mol ratio 20
[37] = (b) = Thymidine, (b)/(a) mol ratio 0.5
[38] = (b) = Thymidine, (b)/(a) mol ratio 2
[39] = (b) = Thymidine, (b)/(a) mol ratio 10
[40] = (b) = Thymine, (b)/(a) mol ratio 0.5
[41] = (b) = Thymine, (b)/(a) mol ratio 2
[42] = (b) = Thymine, (b)/(a) mol ratio 10
[43] = (b) = Uridine, (b)/(a) mol ratio 1
[44] = (b) = Uridine, (b)/(a) mol ratio 2
[45] = (b) = Uridine, (b)/(a) mol ratio 20

SMILES: O=c1[nH]cc(F)c(=O)n1C1CCCO1 (stereo not shown) [Compound 6, 3-(2-Tetrahydrofuryl)-5-fluorouracil]
- ED50 (sarcoma 180; [1]): 51 mg/kg
- ED50 (sarcoma 180; [2]): 29 mg/kg
- ED50 (sarcoma 180; [3]): 18 mg/kg
- ED50 (sarcoma 180; [4]): 32 mg/kg
- ED50 (sarcoma 180; [5]): 26 mg/kg
- ED50 (sarcoma 180; [6]): 16 mg/kg
- ED50 (sarcoma 180; [7]): 55 mg/kg
- ED50 (sarcoma 180; [8]): 46 mg/kg
- ED50 (sarcoma 180; [9]): 33 mg/kg
- ED50 (sarcoma 180; [10]): 59 mg/kg
- ED50 (sarcoma 180; [11]): 41 mg/kg
- ED50 (sarcoma 180; [12]): 28 mg/kg
- ED50 (sarcoma 180; [13]): 59 mg/kg
- ED50 (sarcoma 180; [14]): 47 mg/kg
- ED50 (sarcoma 180; [15]): 34 mg/kg
- ED50 (sarcoma 180; [16]): 53 mg/kg
- ED50 (sarcoma 180; [17]): 42 mg/kg
- ED50 (sarcoma 180; [18]): 26 mg/kg
- ED50 (sarcoma 180; [19]): 42 mg/kg
- ED50 (sarcoma 180; [20]): 32 mg/kg
- ED50 (sarcoma 180; [21]): 25 mg/kg
- ED50 (sarcoma 180; [22]): 49 mg/kg
- ED50 (sarcoma 180; [23]): 30 mg/kg
- ED50 (sarcoma 180; [24]): 22 mg/kg
- ED50 (sarcoma 180; [25]): 39 mg/kg
- ED50 (sarcoma 180; [26]): 26 mg/kg
- ED50 (sarcoma 180; [27]): 21 mg/kg
- ED50 (sarcoma 180; [28]): 26 mg/kg
- ED50 (sarcoma 180; [29]): 17 mg/kg
- ED50 (sarcoma 180; [30]): 11 mg/kg
- ED50 (sarcoma 180; (b) = Cytidine, (b)/(a) mol ratio 1): 58 mg/kg
- ED50 (sarcoma 180; [31]): 39 mg/kg
- ED50 (sarcoma 180; [32]): 34 mg/kg
- ED50 (sarcoma 180; (b) = Cytosine, (b)/(a) mol ratio 1): 56 mg/kg
- ED50 (sarcoma 180; (b) = Cytosine, (b)/(a) mol ratio 2): 41 mg/kg
- ED50 (sarcoma 180; [33]): 24 mg/kg
- ED50 (sarcoma 180; [34]): 69 mg/kg
- ED50 (sarcoma 180; [35]): 61 mg/kg
- ED50 (sarcoma 180; [36]): 46 mg/kg
- ED50 (sarcoma 180; [37]): 67 mg/kg
- ED50 (sarcoma 180; [38]): 63 mg/kg
- ED50 (sarcoma 180; [39]): 60 mg/kg
- ED50 (sarcoma 180; [40]): 48 mg/kg
- ED50 (sarcoma 180; [41]): 27 mg/kg
- ED50 (sarcoma 180; [42]): 14 mg/kg
- ED50 (sarcoma 180; [43]): 43 mg/kg
- ED50 (sarcoma 180; [44]): 31 mg/kg
- ED50 (sarcoma 180; [45]): 29 mg/kg
- ED50 (sarcoma 180; (b)/(a) mol ratio 0 (alone), oral, 50% cancer inhibition (T/C)): 73 mg/kg
- LD50 at 504 h (in vivo; [1]): 874 mg/kg
- LD50 at 504 h (in vivo; [2]): 650 mg/kg
- LD50 at 504 h (in vivo; [3]): 535 mg/kg
- LD50 at 504 h (in vivo; [4]): 702 mg/kg
- LD50 at 504 h (in vivo; [5]): 468 mg/kg
- LD50 at 504 h (in vivo; [6]): 246 mg/kg
- LD50 at 504 h (in vivo; [7]): 833 mg/kg
- LD50 at 504 h (in vivo; [9]): 576 mg/kg
- LD50 at 504 h (in vivo; [10]): 928 mg/kg
- LD50 at 504 h (in vivo; [11]): 844 mg/kg
- LD50 at 504 h (in vivo; [12]): 469 mg/kg
- LD50 at 504 h (in vivo; [13]): 928 mg/kg
- LD50 at 504 h (in vivo; [14]): 843 mg/kg
- LD50 at 504 h (in vivo; [16]): 845 mg/kg
- LD50 at 504 h (in vivo; [17]): 790 mg/kg
- LD50 at 504 h (in vivo; [18]): 525 mg/kg
- LD50 at 504 h (in vivo; [19]): 768 mg/kg
- LD50 at 504 h (in vivo; [20]): 663 mg/kg
- LD50 at 504 h (in vivo; [21]): 448 mg/kg
- LD50 at 504 h (in vivo; [22]): 640 mg/kg
- LD50 at 504 h (in vivo; [23]): 478 mg/kg
- LD50 at 504 h (in vivo; [24]): 308 mg/kg
- LD50 at 504 h (in vivo; [25]): 745 mg/kg
- LD50 at 504 h (in vivo; [26]): 575 mg/kg
- LD50 at 504 h (in vivo; [27]): 412 mg/kg
- LD50 at 504 h (in vivo; [28]): 467 mg/kg
- LD50 at 504 h (in vivo; [30]): 194 mg/kg
- LD50 at 504 h (in vivo; [31]): 928 mg/kg
- LD50 at 504 h (in vivo; [32]): 773 mg/kg
- LD50 at 504 h (in vivo; [33]): 639 mg/kg
- LD50 at 504 h (in vivo; [35]): 969 mg/kg
- LD50 at 504 h (in vivo; [36]): 806 mg/kg
- LD50 at 504 h (in vivo; [37]): 963 mg/kg
- LD50 at 504 h (in vivo; [38]): 886 mg/kg
- LD50 at 504 h (in vivo; [39]): 639 mg/kg
- LD50 at 504 h (in vivo; [40]): 830 mg/kg
- LD50 at 504 h (in vivo; [41]): 537 mg/kg
- LD50 at 504 h (in vivo; [42]): 324 mg/kg
- LD50 at 504 h (in vivo; [43]): 945 mg/kg
- LD50 at 504 h (in vivo; [44]): 815 mg/kg
- LD50 at 504 h (in vivo; [45]): 597 mg/kg
- LD50 (male mice of ICR strain; [8]): 694 mg/kg
- LD50 (male mice of ICR strain; [15]): 680 mg/kg
- LD50 (male mice of ICR strain; [29]): 380 mg/kg
- LD50 (male mice of ICR strain; [34]): 1020 mg/kg
